# Assay results: patent US10301317B2, “Inhibitors of ERK and methods of use” (Kura Oncology, Inc., priority 2013, dated 2019)
# Columns and labels:
# WM-266-4 cells = assay: Tumor cell line proliferation assay (CellTiter Glo), WM-266-4; assay type: cell-based; settings: Homo sapiens, 96 hours, read-out: WM-266-4 (V599D) Cell Proliferation IC50
# H358 (Kras, G12C) cells = assay: Tumor cell line proliferation assay (CellTiter Glo), H358; assay type: cell-based; settings: Homo sapiens, NCI-H358, 96 hours
# A375 cells = assay: Tumor cell line proliferation assay (CellTiter Glo), A375; assay type: cell-based; settings: Homo sapiens, A-375, 96 h, read-out: A375 (V599E) Cell Proliferation IC50
# [1] = test system: phospho-p90 RSK (RSK1 Thr359/Ser363) in A375 (Braf V600E) cells; assay: Phospho-p90 RSK ELISA using A375 (Braf V600E) cells; assay type: cell-based; settings: Homo sapiens, A-375, 2 hours compound treatment, read-out: Cellular Phospho-p90RSK IC50
# ERK2 enzyme = ERK2 enzyme (Homo sapiens (Human), UniProt P28482); assay: Z'-LYTE kinase assay, inhibition of ERK activity; assay type: biochemical; settings: 100 μM ATP
# Method: The inhibition of ERK activity by the compounds disclosed herein was determined using the Z′-LYTE kinase assay kit (Life Technologies) with a Ser/Thr 3 peptide substrate (Life Technologies) according to manufacturers' instructions. […] The IC50 values for the compounds were determined with 3-fold serial dilutions in duplicate. […] The final DMSO concentration in the assay was 1%. Final reaction volume was 20 μL/well in 384-well plates. Kinase reactions were conducted or 1 hour followed by the assay development reaction (1 hour) in a 20 ul/well in a 384 well plate format.
# [2] = In vitro Erk2, Z'-LYTE kinase assay
# Chain of ERK2 enzyme (P28482 whole entry): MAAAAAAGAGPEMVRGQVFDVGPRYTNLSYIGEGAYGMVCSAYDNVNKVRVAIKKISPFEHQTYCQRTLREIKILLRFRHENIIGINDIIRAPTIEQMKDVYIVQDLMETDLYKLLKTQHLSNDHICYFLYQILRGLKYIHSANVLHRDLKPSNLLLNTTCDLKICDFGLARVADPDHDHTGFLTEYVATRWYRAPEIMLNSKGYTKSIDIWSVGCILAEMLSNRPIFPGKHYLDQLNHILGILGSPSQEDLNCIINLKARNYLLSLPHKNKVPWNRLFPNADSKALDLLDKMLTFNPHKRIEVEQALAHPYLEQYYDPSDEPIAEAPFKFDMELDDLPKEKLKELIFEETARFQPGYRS
Structure (SMILES),IC50 (WM-266-4 cells) [nM],"IC50 (H358 (Kras, G12C) cells) [nM]",IC50 (A375 cells) [nM],IC50 [1] [nM],IC50 (ERK2 enzyme; [2]) [nM],"IC50 (ERK2 enzyme; In vitro, ERK2 enzyme) [nM]"
"O=C1Nc2cc3[nH]nc(-c4ccncc4)c3cc2CN1Cc1ccccc1 [Example 1, 6-benzyl-3-(pyridin-4-yl)-1,5,6,8-tetrahydro-7H-pyrazolo[4,3-g]quinazolin-7-one]",≤ 250,≤ 250,≤ 250,≤ 250,,
Cc1cc(-c2n[nH]c3cc4c(cc23)CN(C2(c3ccc(F)cc3)CC2)C(=O)N4)ccn1 [Example 17],> 1000,,> 1000,250 to 1000,,
COc1ccc(-c2n[nH]c3cc4[nH]c(=O)c(C5CCCN(Cc6ccccc6)C5)cc4cc23)cn1 (stereo not drawn) [Example 367],,,,250 to 1000,< 50,
Cc1cc(-c2n[nH]c3cc4c(cc23)CN(Cc2cccc(Cl)c2)C(=O)N4)ccn1 [Example 4],≤ 250,,≤ 250,≤ 250,,
Cc1cc(-c2n[nH]c3cc4c(cc23)CN([C@H](C)c2ccc(F)cc2)C(=O)N4)ccn1 [Example 5],250 to 1000,,> 1000,250 to 1000,,
O=C1Nc2cc3[nH]nc(-c4ccncc4)c3cc2CN1Cc1cccc(Cl)c1 [Example 3],≤ 250,,≤ 250,≤ 250,,
Cc1cc(-c2n[nH]c3cc4c(cc23)CN(Cc2ccc(F)c(Cl)c2)C(=O)N4)ccn1 [Example 8],≤ 250,,250 to 1000,≤ 250,,
Cc1cc(-c2n[nH]c3cc4c(cc23)CN(Cc2cc(F)cc(F)c2)C(=O)N4)ccn1 [Example 7],≤ 250,,250 to 1000,≤ 250,,
Cc1cc(-c2n[nH]c3cc4[nH]c(=O)n(CCc5ccccc5)c4cc23)ccn1 [Example 20],> 1000,,> 1000,> 1000,,
Cc1cc(-c2n[nH]c3cc4c(cc23)CN([C@H](C)c2ccc(Cl)cc2)C(=O)N4)ccn1 [Example 16],250 to 1000,,250 to 1000,≤ 250,,50 to 250
O=C1Nc2cc3[nH]nc(CC4CCOCC4)c3cc2CN1[C@@H]1CN(CC(F)(F)F)C[C@H]1c1ccccc1 [Example 361],,,,≤ 250,50 to 250,
Cc1cc(-c2n[nH]c3cc4[nH]c(=O)c(C(C)c5ccccc5)cc4cc23)ccn1 (stereo not drawn) [Example 22],≤ 250,,≤ 250,≤ 250,,
"Cc1cc(-c2n[nH]c3cc4c(cc23)CN([C@H](C)c2ccccc2)C(=O)N4)ccn1 [Example 2, (R)-3-(2-methylpyridin-4-yl)-6-(1-phenylethyl)-5,6-dihydro-1H-pyrazolo[4,3-g]quinazolin-7(8H)-one]",250 to 1000,,250 to 1000,≤ 250,,
